Experimental data reported in PMC8123621, “Development of Novel Potential Pleiotropic Compounds of Interest in Alzheimer’s Disease Treatment through Rigidification Strategy” (Molecules, 2021).

Columns and labels:
[1] = biological target: T1, human 5-HT4R (5-HT4(b) membrane preparations) (Homo sapiens, UniProt Q13639); assay: h5-HT4R radioligand displacement ([3H]-GR113808); type: binding; conditions: for inhibition at 1 µM: 10^−6 M, 0.5 nM [3H]-GR113808
T1 construct: purchased Eurofins HTS110M
Experimental: (§1) The inhibitory activity of novel analogs towards hAChE was evaluated according to the Ellman test.
At the end of the incubation, homogenates were filtered through Whatman GF/C filters (Alpha Biotech) presoaked with 0.5% polyethylenimine using a Brandel cell harvester. Filters were subsequently washed three times with 1 mL of ice-cold 25 mM Tris buffer (pH 7.4, 4 °C). Non-specific binding was evaluated in parallel in the presence of 30 µM serotonin.
(§2) For some of these compounds, affinity constants were calculated from five-point inhibition curves using the GraphPad Prism 6 software and expressed as Ki ± SD.

[2] = biological target: T2, hAChE (AChE from human erythrocytes) (Homo sapiens, UniProt P22303); assay: biochemical; conditions: for inhibition at 1 µM: read-out: hAChE % Inhibition at 10^−6 M; for IC50: mean ± SEM of three experiments, read-out: hAChE IC50 (nM) (n = 3)
T2 construct: AChE from human erythrocytes; purchased Sigma Aldrich; host or cells: human erythrocytes (tissue-derived enzyme)
T2 sequence (P22303 32-617 isoform P22303-2 limits assumed): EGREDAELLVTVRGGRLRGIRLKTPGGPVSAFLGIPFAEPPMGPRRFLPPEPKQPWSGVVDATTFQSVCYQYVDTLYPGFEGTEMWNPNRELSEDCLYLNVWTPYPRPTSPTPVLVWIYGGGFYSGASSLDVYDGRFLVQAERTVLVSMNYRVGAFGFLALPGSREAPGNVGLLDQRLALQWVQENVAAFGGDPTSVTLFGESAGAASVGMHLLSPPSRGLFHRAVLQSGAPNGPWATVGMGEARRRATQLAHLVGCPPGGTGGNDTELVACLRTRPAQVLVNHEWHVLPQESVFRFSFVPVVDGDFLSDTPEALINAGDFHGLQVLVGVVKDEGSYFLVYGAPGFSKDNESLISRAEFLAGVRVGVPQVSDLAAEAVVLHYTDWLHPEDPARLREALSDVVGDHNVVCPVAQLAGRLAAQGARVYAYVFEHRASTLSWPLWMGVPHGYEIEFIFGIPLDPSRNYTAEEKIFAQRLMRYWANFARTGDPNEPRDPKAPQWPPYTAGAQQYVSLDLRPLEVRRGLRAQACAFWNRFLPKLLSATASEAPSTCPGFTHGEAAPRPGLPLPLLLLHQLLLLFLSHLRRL
Experimental: as §1
Inhibitory capacity of compounds on AChE biological activity was evaluated through the use of the spectrometric method of Ellman. Acetylthiocholine iodide and 5,5-dithiobis-(2-nitrobenzoic) acid (DTNB) were purchased from Sigma Aldrich. AChE from human erythrocytes (buffered aqueous solution, ≥500 units/mg protein (BCA), Sigma Aldrich) was diluted in 20 mM HEPES buffer pH 8, 0.1% Triton X-100 such as to have enzyme solution with 0.25 unit/mL enzyme activity. In the procedure, 100 μL of 0.3 mM DTNB dissolved in phosphate buffer pH 7.4 were added into the 96 wells plate followed by 50 μL of test compound solution and 50 μL of enzyme ([…]). After 5 min of preincubation at 25 °C, the reaction was then initiated by the injection of 50 μL of 1 mM acetylthiocholine iodide solution. […] Assays were performed with a blank containing all components except acetylthiocholine, in order to account for non-enzymatic reaction. The reaction slopes were compared and the percent inhibition due to the presence of test compounds was calculated by the following expression: 100 − (vi/v0 × 100) where vi is the rate calculated in the presence of inhibitor and v0 is the enzyme activity.

human 5-HT6 receptors = biological target: T3, human 5-HT6 receptors (Homo sapiens, UniProt P50406); assay: h5-HT6R radioligand displacement ([3H]-LSD); type: binding; conditions: 10^−6 M; 2.5 nM [3H]-LSD
T3 construct: purchased Perkin Elmer RBHS6M; host or cells: HEK-293 cells, transient expression
T3 sequence (P50406 whole entry): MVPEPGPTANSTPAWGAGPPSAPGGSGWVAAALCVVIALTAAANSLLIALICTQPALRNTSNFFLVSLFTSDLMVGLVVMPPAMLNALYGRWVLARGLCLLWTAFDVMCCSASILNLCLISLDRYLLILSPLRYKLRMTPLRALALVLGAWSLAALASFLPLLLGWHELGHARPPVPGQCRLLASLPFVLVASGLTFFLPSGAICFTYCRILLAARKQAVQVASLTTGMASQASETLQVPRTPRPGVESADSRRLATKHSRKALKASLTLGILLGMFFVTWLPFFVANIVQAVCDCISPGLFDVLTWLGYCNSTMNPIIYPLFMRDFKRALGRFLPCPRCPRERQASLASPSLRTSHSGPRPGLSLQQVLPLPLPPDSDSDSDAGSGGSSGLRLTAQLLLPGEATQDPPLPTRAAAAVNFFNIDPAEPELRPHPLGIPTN
Experimental: as §1
Drugs were evaluated through their possibility to compete for the binding of [^3H]-LSD on membranes of HEK-293 cells transiently expressing the human 5-HT6 receptors (ref. RBHS6M, Perkin Elmer). […] At the end of the incubation, the homogenates were then filtered through Whatman GF/C filters and washed five times with ice-cold 25 mM Tris-HCl buffer. Non-specific binding was evaluated in the presence of 100 µM serotonin. Radioactivity associated to proteins was then quantified and expressed as the percentage of inhibition of the drugs under study.
as §2

[3] = system: scopolamine induced deficit; parameters: method as in PMID 31316368; conditions: model of scopolamine induced deficit; cited from earlier work

T1 sequence (Q13639 whole entry): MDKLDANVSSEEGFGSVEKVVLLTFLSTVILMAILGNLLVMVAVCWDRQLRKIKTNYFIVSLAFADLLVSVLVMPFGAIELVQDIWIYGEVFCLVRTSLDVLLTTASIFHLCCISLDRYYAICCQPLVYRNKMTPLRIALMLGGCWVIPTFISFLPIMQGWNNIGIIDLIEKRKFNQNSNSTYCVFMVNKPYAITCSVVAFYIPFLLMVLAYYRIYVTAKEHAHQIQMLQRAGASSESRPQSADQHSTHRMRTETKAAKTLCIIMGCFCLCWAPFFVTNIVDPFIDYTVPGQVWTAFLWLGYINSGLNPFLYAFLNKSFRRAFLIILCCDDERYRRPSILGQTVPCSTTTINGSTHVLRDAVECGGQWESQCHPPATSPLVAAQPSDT

| Compound | inhibition at 1 µM [1] [%] | inhibition at 1 µM [2] [%] | inhibition at 1 µM (human 5-HT6 receptors) [%] | IC50 [2] [nM] | in vivo anti-amnesic effect [3] | Ki [1] [nM] |
| --- | --- | --- | --- | --- | --- | --- |
| COc1cc(N)c(Cl)cc1-c1nn(C)cc1CC1CCN(CC2CCCCC2)CC1 [3a, 2-chloro-4-(4-((1-(cyclohexylmethyl)piperidin-4-yl)methyl)-1-methyl-1H-pyrazol-3-yl)-5-methoxyaniline] | 34 | 34 | 2 |  |  |  |
| COc1cc(N)c(Cl)cc1-c1nn(C)cc1CC1CCN(Cc2cccc(C)c2)CC1 [3b, 2-chloro-5-methoxy-4-(1-methyl-4-((1-(3-methylbenzyl)piperidin-4-yl)methyl)-1H-pyrazol-3-yl)aniline] | 20 | 76 | 68 | 110 ± 4 |  |  |
| COc1cc(NC(C)=O)c(Cl)cc1-c1cc(OCC2CCN(Cc3cccc(C)c3)CC2)n(C)n1 [12b, N-(2-chloro-5-methoxy-4-(1-methyl-5-((1-(3-methylbenzyl)piperidin-4-yl)methoxy)-1H-pyrazol-3-yl)phenyl)acetamide] | 9 | 15 | 0 |  |  |  |
| Cc1cccc(CN2CCC(COc3cc(-c4ccccc4)nn3C)CC2)c1 [12c, 4-(((1-methyl-3-phenyl-1H-pyrazol-5-yl)oxy)methyl)-1-(3-methylbenzyl)piperidine] | 10 | 15 | 6 |  |  |  |
| COc1ccc(-c2cc(OCC3CCN(Cc4cccc(C)c4)CC3)n(C)n2)cc1OC [12d, 4-(((3-(3,4-dimethoxyphenyl)-1_methyl-1H-pyrazol-5-yl)oxy)methyl)-1-(3-methylbenzyl)piperidine] | 9 | 6 | 9 |  |  |  |
| COc1cc(N)c(Cl)cc1C(=O)CCC1CCN(CC2CCCCC2)CC1 [Donecopride, donecopride, reference compound] | 100 | 96 | 30 |  |  |  |
| Fc1ccc2c(CCNCc3cccc(OCC(F)(F)C(F)F)c3)c[nH]c2c1 [Idalopirdine, idalopirdine, reference compound] |  |  | 106 |  |  |  |
| COc1cc(N)c(Cl)cc1C(=O)CCC1CCN(Cc2cccc(C)c2)CC1 [MR33372, reference compound] | 98 |  | 80 |  | anti-amnesic effect |  |
| CCCCN1CCC(CCC(=O)c2cc(Cl)c(N)cc2OC)CC1 [RS67333, reference compound] | 100 |  |  |  |  |  |
| COc1cc(NC(C)=O)c(Cl)cc1-c1nn(C)cc1CC1CCN(CC2CCCCC2)CC1 [compound 6, N-(2-chloro-4-(4-((1-(cyclohexylmethyl)piperidin-4-yl)methyl)-1-methyl-1H-pyrazol-3-yl)-5-methoxyphenyl)acetamide] | 16 | 31 | 0 |  |  |  |
| COc1cc(NC(C)=O)c(Cl)cc1C(=O)CCC1CCN(CC2CCCCC2)CC1 [compound 7, N-(2-chloro-4-(3-(1-(cyclohexylmethyl)piperidin-4-yl)propanoyl)-5-methoxyphenyl)acetamide] | 94 | 98 |  | 34 ± 5 |  | 300 |
